Test results from ChEMBL document CHEMBL1201862, “PubChem BioAssay data set” (2004).
Calls of active or inactive are those of the source. Peptide text beside a SMILES is read from it.

Key:
[1] = tested on: Streptococcus sp. 'group A'; test: growth inhibition of control SK(-) GAS strain, dose response, counter-screen for streptokinase expression inhibitor project, luminescence, kanamycin, BacTiterGlo, confirmation (AID 1900); assay type: functional, organism-based
Streptococcus = test: Group A Streptococcus viability loss, dose response, counter-screen for streptokinase expression inhibitor project, luminescence, BacTiterGlo (AID 1915); assay type: functional, organism-based;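 note: potency for reduction of bacterial viability or growth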
Streptokinase A = biological target: T1, Streptokinase A (Streptococcus pyogenes serotype M1, UniProt P10520); test: S. pyogenes streptokinase expression inhibitors, potency, dose response, plasminogen activation absorbance, OD405 (AID 1914); assay type: functional, Streptococcus pyogenes M1 GAS;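 note: secreted streptokinase activity via plasminogen activation per viability signal from cell pellet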
T1 sequence (P10520 whole entry): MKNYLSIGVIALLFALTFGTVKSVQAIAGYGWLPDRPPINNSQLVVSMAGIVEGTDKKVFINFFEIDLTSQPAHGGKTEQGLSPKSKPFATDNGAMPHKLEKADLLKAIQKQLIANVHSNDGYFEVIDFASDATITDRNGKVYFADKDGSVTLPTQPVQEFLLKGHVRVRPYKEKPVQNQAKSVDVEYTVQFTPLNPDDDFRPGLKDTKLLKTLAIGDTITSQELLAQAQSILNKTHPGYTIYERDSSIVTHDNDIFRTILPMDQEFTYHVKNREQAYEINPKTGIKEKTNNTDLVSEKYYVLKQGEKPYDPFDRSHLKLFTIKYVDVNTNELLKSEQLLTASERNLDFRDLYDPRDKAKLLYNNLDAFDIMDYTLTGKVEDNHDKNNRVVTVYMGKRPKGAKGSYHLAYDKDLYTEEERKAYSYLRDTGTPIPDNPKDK

Cytochrome P450 2D6 = Cytochrome P450 2D6 (Homo sapiens, UniProt P10635);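 note: CYP2D6 member of a cytochrome P450 panel assay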
Cytochrome P450 1A2 = biological target: T2, Cytochrome P450 1A2 (Homo sapiens, UniProt P05177);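 note: PubChem cytochrome P450 panel assay, CYP1A2 panel member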
T2 sequence (P05177 whole entry): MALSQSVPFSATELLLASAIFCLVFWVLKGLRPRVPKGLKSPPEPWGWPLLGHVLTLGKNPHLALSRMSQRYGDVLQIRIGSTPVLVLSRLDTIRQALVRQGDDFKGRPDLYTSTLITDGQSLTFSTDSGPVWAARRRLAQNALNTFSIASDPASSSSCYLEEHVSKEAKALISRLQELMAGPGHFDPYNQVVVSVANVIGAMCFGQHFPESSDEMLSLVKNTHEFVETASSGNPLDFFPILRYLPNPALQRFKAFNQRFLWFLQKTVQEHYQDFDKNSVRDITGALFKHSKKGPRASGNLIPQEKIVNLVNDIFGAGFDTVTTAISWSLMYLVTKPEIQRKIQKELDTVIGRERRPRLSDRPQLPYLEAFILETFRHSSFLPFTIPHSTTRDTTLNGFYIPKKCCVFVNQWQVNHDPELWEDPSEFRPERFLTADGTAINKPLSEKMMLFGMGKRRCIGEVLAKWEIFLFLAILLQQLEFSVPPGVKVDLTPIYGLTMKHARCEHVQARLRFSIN

[2] = HEp-2 cell cytotoxicity, dose response, cytotoxicity control for RSV inhibitor project, HTS (AID 2410); assay type: functional; conditions: human respiratory syncytial virus
Cytochrome P450 3A4 = Cytochrome P450 3A4 (Homo sapiens, UniProt P08684);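 note: CYP3A4 tested as one member of a cytochrome P450 panel screen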
Cytochrome P450 2C19 = Cytochrome P450 2C19 (Homo sapiens, UniProt P33261); test: Cytochrome panel assay with activity outcomes. Panel member name: p450-cyp2c19 Compounds with AC50 equal or less than 10 uM are considered active; assay type: functional; conditions: read-out: AC50
Cytochrome P450 2C9 = Cytochrome P450 2C9 (Homo sapiens, UniProt P11712)
[3] = biological target: T3, Heat shock factor protein 1 (Mus musculus, UniProt P38532); test: inhibition of MG132-induced HSE-luciferase signal, confirmation, cell-based, NIH3T3, luminescence, dose retest (AID 2382); assay type: functional;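 note: NIH3T3 fibroblasts with HSF1-driven luciferase reporter stressed by proteasome inhibitor MG132; luminescence from HSF1-driven luciferase expression after 8 hours of MG132 stress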
T3 sequence (P38532 whole entry): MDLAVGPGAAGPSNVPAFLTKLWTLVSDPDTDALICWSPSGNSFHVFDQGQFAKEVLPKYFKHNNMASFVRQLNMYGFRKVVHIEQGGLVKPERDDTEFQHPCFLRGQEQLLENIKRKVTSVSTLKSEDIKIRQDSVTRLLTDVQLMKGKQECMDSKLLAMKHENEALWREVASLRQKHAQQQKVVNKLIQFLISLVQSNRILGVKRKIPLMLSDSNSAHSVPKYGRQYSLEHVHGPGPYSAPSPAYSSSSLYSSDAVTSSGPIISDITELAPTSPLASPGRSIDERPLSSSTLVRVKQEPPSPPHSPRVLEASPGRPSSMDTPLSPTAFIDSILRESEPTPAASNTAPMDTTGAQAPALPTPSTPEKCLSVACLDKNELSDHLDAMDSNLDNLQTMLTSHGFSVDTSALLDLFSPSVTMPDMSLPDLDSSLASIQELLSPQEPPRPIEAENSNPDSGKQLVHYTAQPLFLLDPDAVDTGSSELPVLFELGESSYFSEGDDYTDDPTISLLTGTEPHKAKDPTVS

[4] = inhibitors of SNCA 5'UTR-driven reporter translation, confirmation, H4 neuroglioma cells, luminescence (AID 1988); assay type: functional, cell-based
[5] = inhibitors of firefly luciferase expression or activity, dose response, H4 neuroglioma cells, luminescence (AID 1990); assay type: functional, cell-based
Paired box protein Pax-8 = Paired box protein Pax-8 (Homo sapiens, UniProt Q06710); test: inhibitors of PAX8-driven TPO luciferase reporter, dose response, RMG-I cells, cherry-pick (AID 687027); assay type: functional, cell-based;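 note: luciferase reporter driven by Pax8 target thyroperoxidase promoter measured by SteadyGlo luminescence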
H4 = test: Luminescence Cell-Based Dose Response HTS to Identify Activators of 5'UTR Stem-Loop Driven Prion Protein mRNA Translation in H4 Neuroglioblastoma Cells. [Related pubchem assays: 1829 (Project Summary), 1814 (Primary HTS)]; assay type: functional; conditions: Homo sapiens
[6] = Luminescence Cell-Based Dose Response HTS to Identify Activators of Luciferase Translation or Activity in H4 […] Cells. [Related pubchem assays: 1829 (Project Summary), 1814 (Primary HTS)]; assay type: functional

Chain of Cytochrome P450 2C19 (P33261 whole entry): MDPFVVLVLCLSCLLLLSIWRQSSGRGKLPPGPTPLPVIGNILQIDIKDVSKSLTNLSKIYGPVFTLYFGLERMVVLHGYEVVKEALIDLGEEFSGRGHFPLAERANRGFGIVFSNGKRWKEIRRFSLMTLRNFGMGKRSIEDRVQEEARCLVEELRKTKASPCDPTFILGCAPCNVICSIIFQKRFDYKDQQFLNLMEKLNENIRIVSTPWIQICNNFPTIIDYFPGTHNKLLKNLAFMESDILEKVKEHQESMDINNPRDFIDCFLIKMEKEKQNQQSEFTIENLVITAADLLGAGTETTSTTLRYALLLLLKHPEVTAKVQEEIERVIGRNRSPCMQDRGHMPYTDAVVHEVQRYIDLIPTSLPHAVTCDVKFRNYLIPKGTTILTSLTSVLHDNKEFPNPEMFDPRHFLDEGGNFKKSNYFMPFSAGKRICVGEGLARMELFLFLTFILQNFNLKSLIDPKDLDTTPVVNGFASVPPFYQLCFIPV
Chain of Cytochrome P450 3A4 (P08684 whole entry): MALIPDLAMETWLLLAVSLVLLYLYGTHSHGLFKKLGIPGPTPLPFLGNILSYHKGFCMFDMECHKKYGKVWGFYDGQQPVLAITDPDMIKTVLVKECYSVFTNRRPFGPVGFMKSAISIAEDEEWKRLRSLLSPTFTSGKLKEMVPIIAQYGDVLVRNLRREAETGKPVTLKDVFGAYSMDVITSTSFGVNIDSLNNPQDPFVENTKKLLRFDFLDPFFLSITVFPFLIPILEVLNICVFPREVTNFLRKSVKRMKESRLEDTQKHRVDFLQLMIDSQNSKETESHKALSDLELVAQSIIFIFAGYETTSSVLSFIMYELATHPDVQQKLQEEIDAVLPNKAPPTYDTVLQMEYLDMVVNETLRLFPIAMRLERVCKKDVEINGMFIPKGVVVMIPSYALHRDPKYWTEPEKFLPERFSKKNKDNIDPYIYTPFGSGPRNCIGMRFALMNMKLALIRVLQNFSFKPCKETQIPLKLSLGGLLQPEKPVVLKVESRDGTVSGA
Chain of Cytochrome P450 2D6 (P10635 whole entry): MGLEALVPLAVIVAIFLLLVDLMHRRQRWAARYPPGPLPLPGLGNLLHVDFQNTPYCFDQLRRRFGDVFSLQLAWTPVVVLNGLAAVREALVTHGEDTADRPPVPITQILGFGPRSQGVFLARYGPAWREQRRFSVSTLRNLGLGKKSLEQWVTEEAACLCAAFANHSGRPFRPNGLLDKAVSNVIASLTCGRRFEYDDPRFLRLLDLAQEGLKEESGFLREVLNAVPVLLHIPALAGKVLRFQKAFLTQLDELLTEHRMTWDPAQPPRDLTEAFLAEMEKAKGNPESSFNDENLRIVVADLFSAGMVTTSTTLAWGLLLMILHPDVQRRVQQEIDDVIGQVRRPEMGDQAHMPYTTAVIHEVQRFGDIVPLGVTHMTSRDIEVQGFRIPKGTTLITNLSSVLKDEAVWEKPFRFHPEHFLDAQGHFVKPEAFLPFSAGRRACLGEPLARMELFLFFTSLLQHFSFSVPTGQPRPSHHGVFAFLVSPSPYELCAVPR
Chain of Cytochrome P450 2C9 (P11712 whole entry): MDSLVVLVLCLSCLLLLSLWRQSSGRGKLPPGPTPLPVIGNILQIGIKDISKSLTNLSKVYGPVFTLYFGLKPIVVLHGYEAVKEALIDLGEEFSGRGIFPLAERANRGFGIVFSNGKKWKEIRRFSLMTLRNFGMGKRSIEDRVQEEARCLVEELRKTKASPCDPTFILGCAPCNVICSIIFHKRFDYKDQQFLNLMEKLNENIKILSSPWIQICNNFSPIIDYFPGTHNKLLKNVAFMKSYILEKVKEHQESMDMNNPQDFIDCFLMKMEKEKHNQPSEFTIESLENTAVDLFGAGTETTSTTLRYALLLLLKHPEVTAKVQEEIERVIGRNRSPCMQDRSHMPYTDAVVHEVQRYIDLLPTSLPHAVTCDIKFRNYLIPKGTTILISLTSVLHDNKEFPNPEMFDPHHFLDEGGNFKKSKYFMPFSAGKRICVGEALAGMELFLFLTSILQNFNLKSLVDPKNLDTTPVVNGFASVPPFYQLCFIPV
Chain of Paired box protein Pax-8 (Q06710 whole entry): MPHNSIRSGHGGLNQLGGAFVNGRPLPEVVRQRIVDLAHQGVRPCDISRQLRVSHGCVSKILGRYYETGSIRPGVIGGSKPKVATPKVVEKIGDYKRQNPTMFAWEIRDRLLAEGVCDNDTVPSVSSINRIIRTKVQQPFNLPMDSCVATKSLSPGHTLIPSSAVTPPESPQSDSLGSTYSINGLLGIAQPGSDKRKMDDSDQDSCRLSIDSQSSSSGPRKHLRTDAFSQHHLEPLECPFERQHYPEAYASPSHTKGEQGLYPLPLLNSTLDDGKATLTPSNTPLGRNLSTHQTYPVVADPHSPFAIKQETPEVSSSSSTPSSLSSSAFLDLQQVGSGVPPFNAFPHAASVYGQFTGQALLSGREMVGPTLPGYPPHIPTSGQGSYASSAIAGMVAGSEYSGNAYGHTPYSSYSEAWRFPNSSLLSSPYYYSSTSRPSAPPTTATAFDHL

Compound: CC(C)Cc1csc(NC(=O)c2ccc(Br)cc2)c1C(=O)O
- EC50 [1]: 3.59 µM (active)
- EC50 (Streptococcus): 6.59 µM (active)
- EC50 (Streptokinase A): > 150 µM (not active)

Compound: O=C(c1nn(Cc2ccccc2)c(=O)c2ccccc12)N1CCN(C/C=C/c2ccccc2)CC1
- AC50 (Cytochrome P450 2D6): 17.8 µM (inconclusive)
- AC50 (Cytochrome P450 1A2): 20 µM (inconclusive)

Compound: CCOCC(=O)Nc1ccc([N+](=O)[O-])cc1Cl
- CC50 [2]: > 50 µM (active)

Compound: Cc1cccc(NC2=NN=C(c3ccc4c(c3)OCCO4)CS2)c1
- AC50 (Cytochrome P450 2D6): 17.8 µM (inconclusive)
- AC50 (Cytochrome P450 3A4): 2.82 µM (inconclusive)
- AC50 (Cytochrome P450 2C19): 5.01 µM (inconclusive)
- AC50 (Cytochrome P450 2C9): 5.62 µM (inconclusive)

Compound: O=C(CSc1nc2ccccc2s1)N/N=C/c1ccccc1C(=O)O
- EC50 [3]: 5.59 µM (active)

Compound: COc1ccc(C(=O)OC2CCN(c3ncc(C(F)(F)F)cc3Cl)CC2)cc1
- EC50 [1]: 66.5 µM (active)
- EC50 (Streptococcus): 39.7 µM (active)
- EC50 (Streptokinase A): > 150 µM (not active)

Compound: Cc1ccc(C)c(N2CCN(C(=O)C3CCCN(c4ncnc5c4nc4n5CCCCC4)C3)CC2)c1 (configuration not stated)
- CC50 [2]: 20.6 µM (active)

Compound: Cc1ccccc1C(=O)Nc1nnc(CC(=O)N/N=C/c2ccco2)s1
- EC50 [3]: > 195 µM (not active)

Compound: O=C(NC1CCCc2ccccc21)C1CCN(S(=O)(=O)N2CCCCCC2)CC1 (configuration not stated)
- AC50 (Cytochrome P450 2D6): 20 µM (inconclusive)
- AC50 (Cytochrome P450 2C9): 31.6 µM (inconclusive)

Compound: CCc1c2c(nc3cccc(OC)c13)OC(CC)C2 (configuration not stated)
- AC50 (Cytochrome P450 2D6): 39.8 µM (inconclusive)
- AC50 (Cytochrome P450 2C19): 20 µM (inconclusive)

Compound: COc1cc(C=O)ccc1OC(=O)c1ccc(C(C)C)cc1
- EC50 [3]: > 195 µM (not active)

Compound: S=C(c1ccc(-c2ccc(Cl)c(Cl)c2)o1)N1CCOCC1
- CC50 [2]: 29.4 µM (active)

Compound: COCC(=O)N1CCC2(CCCN(Cc3ccncc3)C2)CC1
- AC50 (Cytochrome P450 2D6): 15.8 µM (inconclusive)
- AC50 (Cytochrome P450 3A4): 12.6 µM (inconclusive)

Compound: Fc1ccc(-n2cc(-c3ccccc3)c3c(NN4CCOCC4)ncnc32)cc1
- EC50 [4]: > 120 µM (not active)
- EC50 [5]: > 120 µM (not active)

Compound: NC(=O)c1cc2n(n1)C(C(F)(F)F)CC(c1ccco1)N2 (configuration not stated)
- CC50 [2]: 24.5 µM (active)

Compound: FC(F)(F)c1nc2nc(Cl)c(Cl)nc2n1CCCN1CCOCC1
- AC50 (Cytochrome P450 2D6): 3.98 µM (inconclusive)
- AC50 (Cytochrome P450 1A2): 3.16 µM (inconclusive)
- AC50 (Cytochrome P450 3A4): 5.01 µM (inconclusive)

Compound: CCc1ccc(NC(=S)N2CCN(c3cccc(C(F)(F)F)c3)CC2)cc1
- AC50 (Cytochrome P450 2D6): 0.01 µM (inconclusive)
- AC50 (Cytochrome P450 2C19): 4.47 µM (inconclusive)

Compound: Cc1ccc(-c2nnn(CC(=O)N(Cc3ccco3)C(C(=O)NC(C)(C)C)c3ccc(C)o3)n2)o1 (configuration not stated)
- CC50 [2]: > 50 µM (active)

Compound: COc1cccc(-c2nc(CS(=O)(=O)CC(=O)NCCCN3CC(C)CC(C)C3)c(C)o2)c1 (configuration not stated)
- AC50 (Paired box protein Pax-8): 19.1 µM (active)

Compound: C=CCNC(=O)c1c(O)c2cccc3c2n(c1=O)CCC3
- CC50 [2]: > 50 µM (active)

Compound: C=C1CCC2[C@](C)(CO)[C@H](O)CC[C@@]2(C)[C@@H]1C/C=C1\C(=O)OC[C@H]1O (some centres not stated)
- EC50 (H4): 33 µM (active)
- EC50 [6]: > 120 µM (not active)

Compound: COc1ccc(/C=C/C(=O)N2CCC(C(N)=O)CC2)cc1S(=O)(=O)N1CCOCC1
- EC50 [3]: > 195 µM (not active)

Compound: Cc1cc(OCC(=O)NCCO)cc(C)c1Cl
- EC50 [3]: > 195 µM (not active)

Compound: CCN(CC)CCNC(=O)c1cc(Br)c(N)cc1OC [BROMOPRIDE]
- AC50 (Cytochrome P450 2D6): 5.01 µM (inconclusive)
- AC50 (Cytochrome P450 1A2): 10 µM (inconclusive)

Compound: CCOCc1cnc(C)nc1NCC(=O)c1c(C)[nH]c2ccccc12
- AC50 (Cytochrome P450 2D6): 12.6 µM (inconclusive)

Compound: O=C(CCCCCNC(=O)c1ccccc1)N=Nc1c(O)[nH]c2c(Br)cc(Br)cc12
- EC50 [1]: 6.76 µM (active)
- EC50 (Streptococcus): 28.4 µM (active)
- EC50 (Streptokinase A): > 150 µM (not active)

Compound: Oc1nc2ccccc2n1C1CCN(C(c2cccc3ccccc23)c2nnnn2-c2ccc3c(c2)OCCO3)CC1 (configuration not stated)
- AC50 (Paired box protein Pax-8): 3.78 µM (active)

Compound: CCCCc1ccc(NC(=O)NCc2ccccn2)cc1
- EC50 [1]: > 150 µM (not active)
- EC50 (Streptococcus): > 150 µM (not active)
- EC50 (Streptokinase A): > 150 µM (not active)

Compound: Cc1ccnc(NC(=O)c2cccc(S(=O)(=O)N3CCN(c4ccc(F)cc4)CC3)c2)c1
- CC50 [2]: 13.4 µM (active)

Compound: Cc1ccc(/C=C/C(=O)OCC(=O)NCCN2C(=O)CSC2=O)o1
- EC50 [3]: > 195 µM (not active)

Compound: O=c1c(CCc2ccccc2)nc2cncnc2n1-c1ccccc1
- AC50 (Cytochrome P450 2D6): 25.1 µM (inconclusive)
- AC50 (Cytochrome P450 3A4): 5.01 µM (inconclusive)
- AC50 (Cytochrome P450 2C9): 25.1 µM (inconclusive)

Compound: Cc1cn2c(nc(=O)c3cccnc32)s1
- EC50 [3]: > 195 µM (not active)

Compound: O=C1c2ccccc2CCC12N=NCC2c1ccc(Cl)cc1 (configuration not stated)
- AC50 (Cytochrome P450 2D6): 28.2 µM (inconclusive)
- AC50 (Cytochrome P450 1A2): 20 µM (inconclusive)
- AC50 (Cytochrome P450 3A4): 39.8 µM (inconclusive)

Compound: O=C(c1ccccc1Cc1ccccc1)N1CCN(S(=O)(=O)c2ccccc2Br)CC1
- CC50 [2]: 33.7 µM (active)

Compound: CC(C)(C)C(CN1CCCC1)OC(=O)c1ccccc1 (configuration not stated)
- EC50 [3]: 19.7 µM (active)

Compound: O=C(c1cccc(F)c1)N1CCC[C@@]2(CCN(Cc3ccncc3)C2)C1
- AC50 (Cytochrome P450 2D6): 25.1 µM (inconclusive)
- AC50 (Cytochrome P450 2C9): 20 µM (inconclusive)

Compound: COC(=O)c1nc(NC(=S)NC(=O)c2cccs2)sc1C
- EC50 [1]: 9.59 µM (active)
- EC50 (Streptococcus): > 150 µM (not active)
- EC50 (Streptokinase A): > 150 µM (not active)

Compound: C/C(=N\NC(=O)c1ccc(O)cc1)c1cccc(NC(=O)c2ccccc2C)c1
- EC50 [1]: > 150 µM (not active)
- EC50 (Streptococcus): > 150 µM (not active)
- EC50 (Streptokinase A): > 150 µM (not active)

Compound: CC1CN(C(=O)c2cc(S(=O)(=O)N(C)c3ccc(F)cc3)ccc2Cl)CC(C)O1 (configuration not stated)
- EC50 [3]: > 195 µM (not active)

Compound: COc1cc(NS(=O)(=O)c2ccc(NC(=O)/C=C/C(=O)O)cc2)nc(OC)n1
- EC50 [3]: > 195 µM (not active)

Compound: COc1ccccc1-c1cc(NCc2cnc(C)cn2)ncn1
- AC50 (Cytochrome P450 2D6): 20 µM (inconclusive)

Compound: COC(=O)C(CC(C)C)NC(=O)C(N)Cc1ccccc1 (stereo not drawn) (H-Phe-Leu-OMe; configuration not given here)
- AC50 (Cytochrome P450 2D6): 15.8 µM (inconclusive)
- AC50 (Cytochrome P450 2C19): 17.8 µM (inconclusive)

Compound: C=C(Cl)COc1ccc2c(CCCC)cc(=O)oc2c1
- CC50 [2]: 38.2 µM (active)

Compound: COc1cnc(-c2ccccn2)nc1Oc1ccccc1Cl
- EC50 [1]: > 150 µM (not active)
- EC50 (Streptococcus): > 150 µM (not active)
- EC50 (Streptokinase A): > 150 µM (not active)
